Test results from patent publication US9023849B2, “Substituted fused imidazoles and pyrazoles and use thereof” (Bayer Intellectual Property GmbH, priority 2012, dated 2015).

How the values were obtained:
[1] = target: human PDE 5 (Homo sapiens (Human), UniProt O76074); test: Inhibition of human phosphodiesterase 5 (PDE 5), SPA assay; format: biochemical; conditions: PDE 5 preparation from human platelets, [8-3H]cGMP substrate
Protocol: B-6. Inhibition of Human Phosphodiesterase 5 (PDE 5)
PDE 5 preparations are obtained from human platelets by disruption (Microfluidizer®, 800 bar, 3 passes), followed by centrifugation (75 000 g, 60 min, 4° C.) and ion exchange chromatography of the supernatant on a Mono Q 10/10 column (linear sodium chloride gradient, elution with a 0.2-0.3M solution of sodium chloride in buffer (20 mM Hepes pH 7.2, 2 mM magnesium chloride). Fractions having PDE 5 activity are combined (PDE 5 preparation) and stored at −80° C.
To determine their in vitro action on human PDE 5, the test substances are dissolved in 100% DMSO and serially diluted. Typically, dilution series (1:3) from 200 μM to 0.091 μM are prepared (resulting final concentrations in the test: 4 μM to 0.0018 μM). In each case 2 μl of the diluted substance solutions are placed into the wells of microtitre plates (Isoplate-96/200 W; Perkin Elmer). Subsequently, 50 μl of a dilution of the above-described PDE 5 preparation are added. The dilution of the PDE 5 preparation is selected such that, during the later incubation, less than 70% of the substrate is converted (typical dilution: 1:100; dilution buffer: 50 mM tris/hydrochloric acid pH 7.5, 8.3 mM magnesium chloride, 1.7 mM EDTA, 0.2% BSA). The substrate, [8-^3H]cyclic guanosine-3′,5′-monophosphate (1 μCi/μl; Perkin Elmer) is diluted 1:2000 with assay buffer (50 mM tris/hydrochloric acid pH 7.5, 8.3 mM magnesium chloride, 1.7 mM EDTA) to a concentration of 0.0005 μCi/μl. By addition of 50 μl (0.025 μCi) of the diluted substrate, the enzyme reaction is finally started. The test mixtures are incubated at room temperature for 60 min and the reaction is stopped by adding 25 μl of a suspension of 18 mg/ml yttrium scintillation proximity beads in water (phosphodiesterase beads for SPA assays, RPNQ 0150, Perkin Elmer). The microtitre plates are sealed with a film and left to stand at room temperature for 60 min Subsequently, the plates are analysed for 30 s per well in a Microbeta scintillation counter (Perkin Elmer). IC50 values are determined using the graphic plot of the substance concentration against percentage PDE 5 inhibition.

[2] = system: rabbit aorta rings; test: Vasorelaxant effect in vitro (rabbit aorta rings precontracted with phenylephrine); conditions: Oryctolagus cuniculus, phenylephrine contraction, read-out: IC50 (concentration needed to reduce the magnitude of the phenylephrine contraction by 50%)
Protocol: B-1. Vasorelaxant Effect In Vitro
Rabbits are stunned by a blow to the neck and exsanguinated. The aorta is removed, freed from adhering tissue and divided into rings of width 1.5 mm, which are placed individually under prestress into 5 ml organ baths with carbogen-sparged Krebs-Henseleit solution at 37° C. having the following composition (each mM): sodium chloride: 119; potassium chloride: 4.8; calcium chloride dihydrate: 1; magnesium sulphate heptahydrate: 1.4; potassium dihydrogenphosphate: 1.2; sodium hydrogencarbonate: 25; glucose: 10. The contractile force is determined with Statham UC2 cells, amplified and digitalized using A/D transducers (DAS-1802 HC, Keithley Instruments Munich), and recorded in parallel on linear recorders.
To obtain a contraction, phenylephrine is added to the bath cumulatively in increasing concentration. After several control cycles, the substance to be studied is added in increasing dosage each time in every further run, and the magnitude of the contraction is compared with the magnitude of the contraction attained in the last preceding run. This is used to calculate the concentration needed to reduce the magnitude of the control value by 50% (IC50 value). The standard administration volume is 5 μl; the DMSO content in the bath solution corresponds to 0.1%.

[3] = system: recombinant guanylate cyclase reporter cell line; test: Effect on a recombinant guanylate cyclase reporter cell line; format: cell-based; conditions: read-out: MEC (minimal effective concentration)
Protocol: B-2. Effect on a Recombinant Guanylate Cyclase Reporter Cell Line
The cellular action of the inventive compounds is determined on a recombinant guanylate cyclase reporter cell line as described in F. Wunder et al., Anal. Biochem. 339, 104-112 (2005).

Row | IC50 [1] [nM] | IC50 [2] [nM] | SMILES | minimal effective concentration [3] [µM]
1 | 530 | 7730 | CC1(C)C(=O)Nc2nc(-n3nc(CCC(F)(F)C(F)(F)F)c4cc(F)ccc43)nnc21 [Example 22, 3-[5-Fluoro-3-(3,3,4,4,4-pentafluorobutyl)-1H-indazol-1-yl]-7,7-dimethyl-5,7-dihydro-6H-pyrrolo[2,3-e][1,2,4]triazin-6-one] | 1
2 | 64 | 340 | Cc1ncc2c(-c3nnc4c(n3)NC(=O)C4(C)C)nn(Cc3ccccc3F)c2n1 [Example 16, 3-[1-(2-Fluorobenzyl)-6-methyl-1H-pyrazolo[3,4-d]pyrimidin-3-yl]-7,7-dimethyl-5,7-dihydro-6H-pyrrolo[2,3-e][1,2,4]triazin-6-one] | 0.3
3 | 95 | 794 | CC1(C)C(=O)Nc2nc(-c3nn(CCC(F)(F)C(F)(F)F)c4cc(Cl)ccc34)nnc21 [Example 26, 3-[6-Chloro-1-(3,3,4,4,4-pentafluorobutyl)-1H-indazol-3-yl]-7,7-dimethyl-5,7-dihydro-6H-pyrrolo[2,3-e][1,2,4]triazin-6-one] | 0.3
4 | 450 | 10000 | CCCc1nc(-n2nc(Cc3ccccc3F)c3ccccc32)nc2c1C(C)(C)C(=O)N2 [Example 28, 2-[3-(2-Fluorobenzyl)-1H-indazol-1-yl]-5,5-dimethyl-4-propyl-5,7-dihydro-6H-pyrrolo[2,3-d]-pyrimidin-6-one] | 1
5 | 25 |  | CC1(C)C(=O)Nc2nc(-c3nn(Cc4ccccc4F)c4cc(Cl)ccc34)nnc21 [Example 24, 3-[6-Chloro-1-(2-fluorobenzyl)-1H-indazol-3-yl]-7,7-dimethyl-5,7-dihydro-6H-pyrrolo[2,3-e][1,2,4]triazin-6-one] | 0.1
6 | 230 | 292 | Cc1ncc2c(-c3ncc4c(n3)NC(=O)C4(C)C)nn(Cc3cccc(F)c3F)c2n1 [Example 17, 2-[1-(2,3-Difluorobenzyl)-6-methyl-1H-pyrazolo[3,4-d]pyrimidin-3-yl]-5,5-dimethyl-5,7-dihydro-6H-pyrrolo[2,3-d]pyrimidin-6-one] | 0.3
7 | 16 | 1140 | Cc1ncc2c(-c3nnc4c(n3)NC(=O)C4(C)C)nn(Cc3cccc(F)c3F)c2n1 [Example 18, 3-[1-(2,3-Difluorobenzyl)-6-methyl-1H-pyrazolo[3,4-d]pyrimidin-3-yl]-7,7-dimethyl-5,7-dihydro-6H-pyrrolo[2,3-e][1,2,4]triazin-6-one] | 0.3
8 | 340 | 1670 | Cc1nc(-n2nc(Cc3ccccc3F)c3cc(F)ccc32)nc2c1C(C)(C)C(=O)N2 [Example 27, 2-[5-Fluoro-3-(2-fluorobenzyl)-1H-indazol-1-yl]-4,5,5-trimethyl-5,7-dihydro-6H-pyrrolo[2,3-d]pyrimidin-6-one] | 0.3
9 | 160 |  | CC1(C)C(=O)Nc2nc(-c3nn(Cc4ncccc4F)c4cc(Cl)ccc34)nnc21 [Example 25, 3-[6-Chloro-1-[(3-fluoropyridin-2-yl)methyl]-1H-indazol-3-yl]-7,7-dimethyl-5,7-dihydro-6H-pyrrolo[2,3-e][1,2,4]triazin-6-one] | 0.3
10 | 440 | 8060 | CCc1nc(-n2nc(Cc3ccccc3F)c3cc(F)ccc32)nc2c1C(C)(C)C(=O)N2 [Example 23, 4-Ethyl-2-[5-fluoro-3-(2-fluorobenzyl)-1H-indazol-1-yl]-5,5-dimethyl-5,7-dihydro-6H-pyrrolo[2,3-d]pyrimidin-6-one] | 1
11 | 75 | 1130 | CC1(C)C(=O)Nc2nc(-n3nc(Cc4ccccc4F)c4cc(F)ccc43)nnc21 [Example 21, 3-[5-Fluoro-3-(2-fluorobenzyl)-1H-indazol-1-yl]-7,7-dimethyl-5,7-dihydro-6H-pyrrolo[2,3-e][1,2,4]triazin-6-one] | 0.1

The next lines start with the molecule.

Row | SMILES | IC50 [1] [nM] | IC50 [2] [nM] | minimal effective concentration [3] [µM]
12 | CC1(C)C(=O)Nc2nc(-n3nc(Cc4c(F)ccc(F)c4F)c4cc(Cl)ccc43)ncc21 [Example 2, 2-[5-Chloro-3-(2,3,6-trifluorobenzyl)-1H-indazol-1-yl]-5,5-dimethyl-5,7-dihydro-6H-pyrrolo[2,3-d]pyrimidin-6-one] | 3700 | 5160 | 0.065
13 | CC1(C)C(=O)Nc2nc(-c3nn(Cc4ccccc4F)c4c3CCC4)nc(I)c21 [Example 10, 2-[1-(2-Fluorobenzyl)-1,4,5,6-tetrahydrocyclopenta[c]pyrazol-3-yl]-4-iodo-5,5-dimethyl-5,7-dihydro-6H-pyrrolo[2,3-d]pyrimidin-6-one] | 480 |  | 1
14 | CC1(C)C(=O)Nc2nc(-c3nn(Cc4ccccc4F)c4c3CCC4)nnc21 [Example 12, 3-[1-(2-Fluorobenzyl)-1,4,5,6-tetrahydrocyclopenta[c]pyrazol-3-yl]-7,7-dimethyl-5,7-dihydro-6H-pyrrolo[2,3-e][1,2,4]triazin-6-one] | 3500 |  | 1
15 | CC1(C)C(=O)Nc2nc(-c3nn(Cc4ccccc4F)c4c3CCC4)ncc21 [Example 11, 2-[1-(2-Fluorobenzyl)-1,4,5,6-tetrahydrocyclopenta[c]pyrazol-3-yl]-5,5-dimethyl-5,7-dihydro-6H-pyrrolo[2,3-d]pyrimidin-6-one] | 4000 | 601 | 0.3
16 | CC1(C)C(=O)Nc2nc(-n3nc(Cc4ccccc4F)c4cc(F)ccc43)nc(I)c21 [Example 6, 2-[5-Fluoro-3-(2-fluorobenzyl)-1H-indazol-1-yl]-4-iodo-5,5-dimethyl-5,7-dihydro-6H-pyrrolo[2,3-d]pyrimidin-6-one] | 690 |  | 0.766
17 | CC1(C)C(=O)Nc2nc(-n3nc(Cc4ccccc4F)c4ccccc43)nc(I)c21 [Example 3, 2-[3-(2-Fluorobenzyl)-1H-indazol-1-yl]-4-iodo-5,5-dimethyl-5,7-dihydro-6H-pyrrolo[2,3-d]pyrimidin-6-one] | 690 |  | 0.3
18 | CC1(C)C(=O)Nc2nc(-n3nc(Cc4ccccc4F)c4ncc(F)cc43)nnc21 [Example 9, 3-[6-Fluoro-3-(2-fluorobenzyl)-1H-pyrazolo[4,3-b]pyridin-1-yl]-7,7-dimethyl-5,7-dihydro-6H-pyrrolo[2,3-e][1,2,4]triazin-6-one] | 85 | 641 | 0.1
19 | Cc1ncc2c(-c3ncc4c(n3)NC(=O)C4(C)C)nn(Cc3ccccc3F)c2n1 [Example 15, 2-[1-(2-Fluorobenzyl)-6-methyl-1H-pyrazolo[3,4-d]pyrimidin-3-yl]-5,5-dimethyl-5,7-dihydro-6H-pyrrolo[2,3-d]pyrimidin-6-one] | 310 | 78 | 0.1
20 | CC1(C)C(=O)Nc2nc(-n3nc(Cc4ccccc4F)c4cc(F)ccc43)ncc21 [Example 8, 2-[5-Fluoro-3-(2-fluorobenzyl)-1H-indazol-1-yl]-5,5-dimethyl-5,7-dihydro-6H-pyrrolo[2,3-d]pyrimidin-6-one] | 400 | 95 | 0.3
21 | CC1(C)C(=O)Nc2nc(-n3nc(Cc4ccccc4F)c4ccccc43)ncc21 [Example 5, 2-[3-(2-Fluorobenzyl)-1H-indazol-1-yl]-5,5-dimethyl-5,7-dihydro-6H-pyrrolo[2,3-d]pyrimidin-6-one] | 440 | 22 | 0.03
